Patent US20090075925A1, “Methods and Compositions Related to APOBEC-1 Expression” (priority 2006, published 2009)
Like-named read-outs stand apart in the source and are kept apart here. Blank lines part the entries; values can stand above or below the compound they belong to.

What was measured:
apoB mRNA editing = system: apoB mRNA editing
Experimental: Protein phosphatase inhibitor studies. […] The compounds' effects on apoB mRNA editing were evaluated by RT-PCR and poisoned-primer extension analysis (Sowden et al. Rna 2:274-88 (1996)). The effect of 470 nM cantharidin on ACF subcellular distribution was investigated by treating primary hepatocyte cultures for 6 hours followed by nuclear and cytoplasmic extract preparation.
It was reasoned that if phosphorylation of ACF regulated editing activity, treatment of rat primary hepatocytes with phosphatase inhibitors might stimulate apoB mRNA editing activity. […] The experiments (n=4-6) were done over a number of months and therefore represent primary hepatocytes from several rats.
Editing activity was quantified from primary hepatocytes incubated with 10-100-times the EC50 of the various […] (Calbiochem).

PKA [1] = settings: cited from earlier work
ACF = ACF phosphorylation in 32P-labeled rat primary hepatocytes (ACF immunoprecipitation, autoradiography); type: cell-based; settings: 32Pi 500 μCi/ml, 6 hours
Experimental: In vivo phosphorylation of ACF. In vivo ^32P labeling was performed by intraperitoneal injection of rats with 12.5 mCi of orthophosphoric acid (10 mCi/ml ^32PO4; NEN, Boston, Mass.) buffered with 50 mM HEPES, pH 7.0 and 150 mM NaCl. After 4 hours, rats were sacrificed and hepatic cytoplasmic and nuclear extracts prepared. Primary hepatocyte cultures in 60 mm dishes were incubated in phosphate-free Minimum Essential Eagle Media (Sigma) containing 0.1 nM porcine insulin for 6 hours and subsequently in fresh media containing 10 nM insulin (equivalent to that seen in post-prandial serum) or 0.45% to 0.9% ethanol (AAPER Alcohol and Chemical Co., Shelbyville, Ky.) (Van Mater et al. (1998), Yang et al. (2000)) plus 2.0 mCi orthophosphoric acid. Cultures were labeled for 4 hours prior to extract preparation.
To evaluate the effect of phosphatase inhibition on ACF phosphorylation, cultures were pre-incubated for 2 hours with 470 nM cantharadin in phosphate-free Waymouth's media and subsequently supplemented with 0.5 mCi ^32pO4 and incubated for an additional 4 hours. Cultures were harvested and subcellular extracts prepared.
Immunological techniques. […] For immunoprecipitation analyses all radiolabeled extracts were adjusted to 5 mM MgCl2 and digested with 100 units of DNase I (Promega), RNase T1 (Roche, Ind.), and RNase A (Sigma) for 1 hour on ice to remove radiolabeled nucleic acid. Where applicable, extracts were incubated overnight with ACF CT antibody at 4° C. and subsequently reacted with Protein A-agarose (Oncogene Research Products, Boston, Mass.) pre-washed with 1×TBS/10 mM NaF. The immuno-absorbed material was washed 3 times with 1×TBS/10 mM NaF, 3 times with 1×TBS/1 M NaCl (Yang et al. (1997)) and lastly 3 times with 1×TBS. Immuno-absorbed material to be treated with alkaline phosphatase was washed with 50 mM Tris, pH 8.4, 1 mM MgCl2, 0.1 mM ZnCl2, 25% glycerol and then incubated with 5 U CIAP for 1 hour at 30° C. and then washed 6 times with 1×TBS. ACF-antibody complexes were eluted with 3 M sodium thiocyanate, acetone precipitated and analyzed by 10.5% SDS-PAGE followed by autoradiography and/or western blotting with ACF NT antibody. For ACF immunoprecipitation from gradient fractions an equal volume of pooled gradient fractions from sedimentation zones of interest were reacted with sub-saturating amounts of ACF CT antibody to ensure that the recovery of phospho-ACF was not simply a reflection of ACF abundance in each zone.
To evaluate this, cytoplasmic and nuclear extracts from radiolabeled primary hepatocyte cultures were sedimented through 10%-50% glycerol gradients. […] The ACF immunoprecipitates were resolved by SDS-PAGE, transferred to nitrocellulose, autoradiographed and subjected to phosphorimager scanning to detect and quantify radiolabeled proteins prior to immunoblotting with the ACF NT antibody.

PKA [2] = settings: cited from earlier work; remark: listed apart in the source
PKC [3] = settings: cited from earlier work
ACF64 = assay: ACF phosphorylation in 32P-labeled McArdle cells; type: cell-based, rat; settings: 6 hour
Experimental: Numerous kinase inhibitors were evaluated but only those acting on Protein Kinase C affected editing activity. […] Cell extracts were immunoprecipitated with the ACF C-terminal specific antibody and analyzed by PAGE and autoradiography (FIG. 23). […] However, at and above the IC50 of PKC, phosphorylation of ACF64 was inhibited by 90% and 100%.

PKC [4] = settings: cited from earlier work; remark: listed apart in the source
[5] = 10 mg/kg per day IP, 26 day period; cited from earlier work

Compound: Nc1ncnc2c1nc(Sc1ccc(Cl)cc1)n2[C@@H]1O[C@@H]2COP(=O)(O)O[C@H]2[C@H]1O [8-cpt cAMP]
- apoB mRNA editing, Mean (apoB mRNA editing; 2 μM): 61.2%
- apoB mRNA editing, Mean (apoB mRNA editing; 20 μM): 59.3%
- apoB mRNA editing, Mean (apoB mRNA editing; 200 μM): 59.6%
- EC50 (PKA [1]): 2 µM

- effect on editing in hepatocytes (apoB mRNA editing): stimulated
Compound: NCCNS(=O)(=O)c1cccc2c(Cl)cccc12 [A3]
- concentration at which ACF phosphorylation was inhibited (ACF): ≥ 40 µM
- IC50 (PKA [2]): 4 µM
- IC50 (PKC [3]): 47 µM
- inhibition of ACF64 phosphorylation (ACF64; above the IC50 of PKC (120 μM)): 100%
- decrease of ACF phosphorylation relative to untreated cells (ACF64; at the IC50 of PKA (4 μM)): 20%
- inhibition of ACF64 phosphorylation (ACF64; at the IC50 of PKC (40 μM)): 90%

Compound: CC(C)[C@H]1C(=O)N[C@H](CO)Cc2c[nH]c3cccc(c23)N1C [Indolactam V]
- apoB mRNA editing, Mean (apoB mRNA editing; 12 μM): 92.47%
- editing activity compared to solvent treated controls (from 65%) (apoB mRNA editing; 12 μM, SEM 4.8, n=2): 92%
- apoB mRNA editing, Mean (apoB mRNA editing; 120 μM): 91.57%
- effect on apoB mRNA editing (apoB mRNA editing; concentration not given): stimulated editing
- EC50 (PKC [4]): 0.2 µM

Compound: leptin: protein product of the ob gene, 16 kDa circulating hormone
- decrease in weight at the conclusion of the study [5]: ~20%
